Laboratory results from ChEMBL document CHEMBL1129869, “SPORANDOL: A NOVEL ANTIPARASITIC BINAPHTHALENE FROM CHRYSOSPORIUM MERIDARIUM” (Bioorg Med Chem Lett, 1997).
The source made the active and inactive calls. No cut-off for these calls is given here.

Experiments:
Dipetalogaster maximus = assay: Antiparasitic activity against ecto parasite Dipetalogaster maximus in mouse at a dose of 190 mg/kg; Active; format: functional, organism-based; parameters: dose 190 mg/kg
Fasciola hepatica = assay: Antiparasitic activity against endo parasite Fasciola hepatica in mouse at a dose of 190 mg/kg; Active; format: functional, organism-based; parameters: dose 190 mg/kg

Structure (SMILES): COc1cc2cc(C)c(C(C)=O)c(O)c2c(O)c1-c1c(OC)cc2cc(C)c(C(C)=O)c(O)c2c1O
- Activity (Dipetalogaster maximus): Active
- Activity (Fasciola hepatica): Active
